Consider nine compounds from patent US4962109A, “Insecticidally and acaricidally active pyrimidine esters and intermediates therefor” (Imperial Chemical Industries PLC, priority 1985, dated 1990).

Assay type in all cases: in vivo
In experiment [1] the test system is Tetranychus urticae (spider mites - ova). As to the kind of experiment: Contact test on spider mites - ova (TUe), French bean leaf, mortality. The following applies: 144 h, 500 ppm, contact, 6 days, read-out: TUe grading of mortality. An outline of the steps: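 Graded read-out: A 80-100%, B 50-79%, C below 50% mortality or knockdown, assessed usually 1-3 days post-treatment. Liquid preparations at 500, 250 or 100 ppm by weight, from acetone solution diluted in water with 0.01% wetting agent, applied to pests and/or their host plant or food medium.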

Experiment [2] deals with Heliothis virescens (tobacco budworm - larvae). Put plainly: Residual test on tobacco budworm larvae (HV), Cotton leaf, mortality. To be noted: 48 h, read-out: HV grading of mortality. In outline: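 Product in acetone diluted with water containing 0.01% Lissapol NX, at 500, 250 or 100 ppm; pests and/or host medium (here cotton leaf) treated. Mortality scored one to three days later, graded A (80-100%), B (50-79%), C (<50%).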

The test system of experiment [3] is Musca domestica (houseflies - adults). As to the kind of experiment: Knockdown test on houseflies - adults (MD/KD), Cotton wool/sugar. To be noted: 500 ppm, 4 hours, read-out: MD/KD grading of knockdown. In outline: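 Adult houseflies exposed to the compound at 500, 250 or 100 ppm in acetone/water with 0.01% wetting agent, on a cotton wool/sugar medium. Knockdown and mortality assessed, graded A (80-100%), B (50-79%) or C (<50%).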

Experiment [4] concerns Blattella germanica (cockroach nymphs). As to the kind of experiment: Residual test on cockroach nymphs (BG/R), Plastic pot, mortality. The following applies: 72 h, 3 days, read-out: BG/R grading of mortality. On the procedure:
(§1) The activity of the Product was determined using a variety of insect pests. The Product was used in the form of liquid preparations containing 500, 250 or 100 parts per million (ppm) by weight of the Product. The preparations were made by dissolving the Product in acetone and diluting the solutions with water containing 0.01% by weight of a wetting agent sold under the trade name "LISSAPOL" NX until the liquid preparations contained the required concentration of the Product. "Lissapol" is a Registered Trade Mark.
(§2) The test procedure adopted with regard to each pest was basically the same and comprised supporting a number of the pests on a medium which was usually a host plant or a foodstuff on which the pests feed, and treating either or both the pests and the medium with the preparations. The mortality of the pests was then assessed at periods usually varying from one to three days after the treatment.
(§3) The results of the tests are given in Table III for each of the Products, at the rate in parts per million given in the second column as a grading of mortality designated as A, B or C wherein A indicates 80-100% mortality or knockdown, B indicates 50-79% mortality or knockdown and C indicates less than 50% mortality or knockdown.
BG/R Blattella germanica

For experiment [5], the system named is Tetranychus urticae (spider mites - adult). Put plainly: Contact test on spider mites - adult (TUa), French bean leaf, mortality. To be noted: 72 h, 500 ppm, contact, 3 days, read-out: TUa grading of mortality. In outline: (§4)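 Pests were supported on a host plant or food medium, and either or both were treated with preparations at 500, 250 or 100 ppm by weight. Mortality was assessed one to three days afterwards and banded into three grades, from A (80-100%) down to C (under 50%).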

In experiment [6] the test system is Nilaparvata lugens (brown plant hopper). As to the kind of experiment: Contact test on brown plant hopper (NL), Rice plant, mortality. The following applies: 72 h, 3 days, read-out: NL grading of mortality. On the procedure:
as §1, §2, §3

A further experiment concerns Myzus persicae (aphids). As to the kind of experiment: Contact test on aphids (MP), Chinese Cabbage leaf, mortality. The following applies: 72 h, 500 ppm, contact, 3 days, read-out: MP grading of mortality. An outline of the steps: as §4
Experiment [7] has as its system Spodoptera exigua (lesser army worm - larvae). As to the kind of experiment: Residual test on lesser army worm larvae (SP), Cotton leaf, mortality. To be noted: 48 h, 500 ppm, residual, read-out: SP grading of mortality. An outline of the steps: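 Product dissolved in acetone and diluted in water with 0.01% wetting agent to 500, 250 or 100 ppm; larvae and/or cotton leaf host treated. Mortality or knockdown scored one to three days later and graded A (80-100%), B (50-79%) or C (<50%).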

The subject of experiment [8] is Musca domestica (houseflies - adults). Put plainly: Contact test on houseflies - adults (MD), Cotton wool/sugar, mortality. To be noted: 500 ppm, contact, read-out: MD grading of mortality. In outline:
as §4

In experiment [9] the test system is Diabrotica balteata (rootworm larvae). As to the kind of experiment: Residual test on rootworm larvae (DB), Filter paper/maize seed, mortality. To be noted: 48 h, 500 ppm, residual, read-out: DB grading of mortality. An outline of the steps:
as §4

For experiment [10], the system named is Nephotettix cincticeps (green leaf hopper - nymphs). Put plainly: Contact test on green leaf hopper nymphs (NC), Rice plant, mortality. The following applies: 500 ppm, contact, read-out: NC grading of mortality. An outline of the steps: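 Product dissolved in acetone, diluted in water with 0.01% wetting agent to 500, 250 or 100 ppm; nymphs and/or host rice plants treated. Mortality or knockdown assessed 1–3 days later, graded A (80-100%), B (50-79%), C (<50%).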

[11] abbreviates: 24 h, ** test duration of 1 day.
The mark [12] stands for this setting: 72 h, * test duration of 3 days.

Read-outs that look alike come from different tables or passages of the source.

Turning to `C=CCc1c(F)c(F)c(COC(=O)C(c2cnc(N(C)C)nc2)C(C)C)c(F)c1F` (racemic) [Compound 115, 2,3,5,6-tetrafluoro-4-(prop-2-en-1-yl)benzyl (RS)-2-[2-(N,N-dimethylamino)pyrimidin-5-yl]-3-methylbutanoate], the mortality at 500 ppm in [1] was 80 to 100%; in [2], 80 to 100%; in experiment [4], 80 to 100%; in [5], 80 to 100%; in [6], less than 50%; with Myzus persicae (aphids), 80 to 100%. Besides, the figures for the mortality at 500 ppm in experiment [7] (* test duration of 3 days), in [8] (setting [11]) and in experiment [9] (* test duration of 3 days) were 80 to 100%, 80 to 100% and less than 50%, respectively. Further, the pest or weed control at 500 ppm in experiment [3] is less than 50%.
For `CCC(C(=O)OCc1c(F)c(F)c(C)c(F)c1F)c1cnc(C(C)(C)C)nc1` (racemic) [Compound 122, 2,3,5,6-tetrafluoro-4-methyl (RS)-2-[2-(1,1-dimethylethyl)pyrimidin-5-yl]butanoate], the mortality at 500 ppm is less than 50% in [1]; 80 to 100% in [2]; less than 50% in experiment [4]; 80 to 100% in [5]; less than 50% in [6]; 80 to 100% in the experiment with Myzus persicae (aphids). Also, the mortality at 500 ppm lay within 80 to 100% in experiment [7] (* test duration of 3 days), 80 to 100% in experiment [8] (setting [11]) and 50 to 79% in [9] (* test duration of 3 days). In experiment [3], the pest or weed control at 500 ppm is 80 to 100%.
Consider `COCc1c(F)c(F)c(COC(=O)C(c2cnc(C)nc2)C(C)(C)C)c(F)c1F` (racemic) [Compound 120, 2,3,5,6-tetrafluoro-4-(methoxymethyl)-benzyl (RS)-2-(2-methylpyrimidin-5-yl)-3,3-dimethylbutanoate], for which the mortality at 500 ppm in experiment [1] is less than 50%; in experiment [2], 80 to 100%; in [4], less than 50%; in experiment [5] it was 80 to 100%; in [10] (48 h, 2 days), 80 to 100%; in the experiment with Myzus persicae (aphids), 80 to 100%. For the same compound, the mortality at 500 ppm in [7] (2 days) was 80 to 100%; in experiment [8] (72 h, 3 days), 80 to 100%; in experiment [9] (2 days), less than 50%. Also, the pest or weed control at 500 ppm in experiment [3] lay in the range of 80 to 100%.
`COCc1c(F)c(F)c(COC(=O)C(c2cnc(C(C)(C)C)nc2)C(C)(C)C)c(F)c1F` (racemic) [Compound 15, 2,3,5,6-tetrafluoro-4-(methoxymethyl)benzyl (RS)-2-[2-(1,1-dimethylethyl)pyrimidin-5-yl]-3,3-dimethylbutanoate]: the mortality at 500 ppm in experiment [1] was in the range of 80 to 100%; in [2] it was 80 to 100%; in experiment [4] it was 50 to 79%; in experiment [5], 80 to 100%; in [10] (setting [12]), 80 to 100%; in the experiment on Myzus persicae (aphids) it was 80 to 100%. Also, the mortality at 500 ppm in experiment [7] (* test duration of 3 days), in experiment [8] (setting [11]) and in [9] (* test duration of 3 days) was 80 to 100% throughout. Moreover, the pest or weed control at 500 ppm in [3] lay within 80 to 100%.
Consider `CC(C)(C)c1ncc(C(C(=O)OCc2ccc(F)c(Oc3ccccc3)c2)C2CC2)cn1` (racemic) [Compound 125, 4-fluoro-3-phenoxybenzyl (RS)-2-[2-(1,1-dimethylethyl)pyrimidin-5-yl]-2cyclopropylacetate], for which the mortality at 500 ppm is less than 50% in experiment [1]; 80 to 100% in experiment [2]; less than 50% in experiment [4]; 80 to 100% in experiment [5]; 80 to 100% in experiment [10] (setting [12]); 80 to 100% in the experiment on Myzus persicae (aphids). In addition, the results for the mortality at 500 ppm in experiment [7] (* test duration of 3 days), in [8] (setting [11]) and in experiment [9] (* test duration of 3 days) were 80 to 100%, 50 to 79% and 80 to 100%, respectively. For the same compound, in experiment [3], the pest or weed control at 500 ppm was in the range of 50 to 79%.
Consider `C=CCc1c(F)c(F)c(COC(=O)C(c2cnc(C(F)(F)F)nc2)C(C)C)c(F)c1F` (racemic) [Compound 114, 2,3,5,6-tetrafluoro-4-(prop-2-en-1-yl)benzyl (RS)-2-(2-trifluoromethylpyrimidin-5-yl)-3-methylbutanoate], for which the mortality at 500 ppm (in [1]; in [2]; in [4]; in [5]; in [10] (setting [12]); with Myzus persicae (aphids)) was 80 to 100% throughout. Further, the mortality at 500 ppm in experiment [7] (* test duration of 3 days) is 80 to 100%; in [8] (72 h, 3 days), 80 to 100%; in experiment [9] (* test duration of 3 days), 80 to 100%. Further, in [3], the pest or weed control at 500 ppm was 80 to 100%.
As to `COCc1c(F)c(F)c(COC(=O)C(c2cnc(Cl)nc2)C(C)C)c(F)c1F` (racemic) [Compound 118, 2,3,5,6-tetrafluoro-4-(methoxymethyl)benzyl (RS)-2-(2-chloropyrimidin-5-yl)-3-methylbutanoate], the mortality at 500 ppm is less than 50% in [1]; 50 to 79% in experiment [2]; less than 50% in experiment [4]; 50 to 79% in experiment [5]; less than 50% in experiment [6]; 80 to 100% with Myzus persicae (aphids). Besides, the mortality at 500 ppm in experiment [7] (* test duration of 3 days) is 50 to 79%; in experiment [8] (setting [11]) it was 80 to 100%; in experiment [9] (* test duration of 3 days) it was less than 50%.
As to `C#CCc1c(F)c(F)c(COC(=O)C(c2cnc(C(F)(F)F)nc2)C(C)C)c(F)c1F` (racemic) [Compound 87, 2,3,5,6-tetrafluoro-4-(prop-2-yn-1-yl)benzyl (RS)-2-(2-trifluoromethylpyrimidin-5-yl)-3-methylbutanoate], the mortality at 500 ppm fell in the range of 80 to 100% in [1]; 50 to 79% in [2]; 80 to 100% in [4]; 80 to 100% in experiment [5]; 50 to 79% in [10] (setting [12]); 80 to 100% in the experiment on Myzus persicae (aphids). In addition, the mortality at 500 ppm in [7] (* test duration of 3 days), in [8] (setting [11]) and in [9] (* test duration of 3 days) was 80 to 100% in each case. In [3], the pest or weed control at 500 ppm was 80 to 100%.
As for `C[C@@H](OC(=O)[C@@H](c1cnc(C(C)(C)C)nc1)C1CC1)c1cccc(Oc2ccccc2)n1` (racemic) [Compound 90, (RS)-1-(6-phenoxypyrid-2-yl)ethyl (RS)-2-[2-(1,1-dimethylethyl)pyrimidin-5-yl]-2-cyclopropylacetate], the mortality at 500 ppm was less than 50% in experiment [1]; 80 to 100% in experiment [2]; 80 to 100% in experiment [4]; 80 to 100% in [5]; 80 to 100% in experiment [10] (setting [12]); 80 to 100% in the experiment on Myzus persicae (aphids). The mortality at 500 ppm in experiment [7] (* test duration of 3 days), in experiment [8] (setting [11]) and in [9] (* test duration of 3 days) was 80 to 100% throughout. Further, the pest or weed control at 500 ppm in experiment [3] was in the range of 80 to 100%.
